Assay results from publication PMC12514841 (Protein Science : A Publication of the Protein Society, 2025).
Where “and” joins values, the source holds several entries; their conditions need not be identical. Equal values may be shown once.

Experiments:
Format in all cases: biochemical
BlaC I105Y = BlaC I105Y (Mycobacterium tuberculosis, UniProt P9WKD3, I117Y); conditions: pH 6.4
BlaC S130G = BlaC S130G (Mycobacterium tuberculosis, UniProt P9WKD3, S142G)
BlaC I105Y-S130G [1] = target: T1, BlaC I105Y-S130G (Mycobacterium tuberculosis, UniProt P9WKD3, I117Y/S142G); conditions: pH 6.4
BlaC I105G = BlaC I105G (Mycobacterium tuberculosis, UniProt P9WKD3, I117G); conditions: pH 6.4
BlaC G132N = BlaC G132N (Mycobacterium tuberculosis, UniProt P9WKD3, G132N/G144N)
BlaC I105G-G132N [2] = target: T2, BlaC I105G-G132N (Mycobacterium tuberculosis, UniProt P9WKD3, G144N/I117G)
BlaC I105Y-S130G [3] = target: T1, BlaC I105Y-S130G
BlaC I105G-G132N [4] = target: T2, BlaC I105G-G132N; remark: listed apart in the source

In the case of O=C(Cc1cccs1)N[C@@H]1C(=O)N2C(C(=O)O)=C(/C=C/c3ccc([N+](=O)[O-])cc3[N+](=O)[O-])CS[C@H]12 [Nitrocefin, nitrocefin], the “K M ^app” value (BlaC I105Y) is reported as 18 ± 1 µM, the k cat (BlaC I105Y) is reported as 39 ± 10 s⁻¹ and the “k cat /K M ^app relative to the wild-type” value (BlaC I105Y) is reported as 4.2 ± 0.2. The “k cat/K M ^app” value (BlaC I105Y) was 2.1 ± 0.1 µM⁻¹ s⁻¹, the “fold decrease in k cat/K M ^app compared to the wild-type” value (BlaC S130G) was “approximately 30 fold” and the “K M ^app” value (BlaC S130G; pH 6.4) was 358 ± 4 µM. For the same molecule, the k cat (BlaC S130G; pH 6.4) was 5 ± 1 s⁻¹, the “k cat /K M ^app relative to the wild-type” value (BlaC S130G; pH 6.4) was 0.03 ± 0.01 and the “k cat/K M ^app” value (BlaC S130G; pH 6.4) was 0.014 ± 0.003 µM⁻¹ s⁻¹. The k cat (BlaC I105Y-S130G [1]) was 21 ± 7 and 21 ± 7 s^−1, the “k cat /K M ^app relative to the wild-type” value (BlaC I105Y-S130G [1]) was 0.08 ± 0.04 and the kcat (BlaC I105Y-S130G [1]) was 13 ± 4 s⁻¹ and 13 ± 1 s⁻¹. The “K M ^app” value (BlaC I105G) was 240 ± 40 µM, the k cat (BlaC I105G) was 79 ± 5 s⁻¹ and the “k cat /K M ^app relative to the wild-type” value (BlaC I105G) was 0.68 ± 0.04. The “k cat/K M ^app” value (BlaC I105G) was 0.34 ± 0.02 µM⁻¹ s⁻¹, the “K M ^app” value (BlaC G132N; pH 6.4) was 210 ± 30 µM and the k cat (BlaC G132N; pH 6.4) was 18 ± 2 s⁻¹. The “k cat /K M ^app relative to the wild-type” value (BlaC G132N; pH 6.4) was 0.16 ± 0.04, the “k cat/K M ^app” value (BlaC G132N; pH 6.4) was 0.08 ± 0.02 µM⁻¹ s⁻¹ and the “K M ^app” value (BlaC I105G-G132N [2]; pH 6.4) was 115 ± 1 µM. For the same molecule, the k cat (BlaC I105G-G132N [2]; pH 6.4) was 41 ± 1 s⁻¹, the “k cat /K M ^app relative to the wild-type” value (BlaC I105G-G132N [2]; pH 6.4) was 0.71 ± 0.01 and the “k cat/K M ^app” value (BlaC I105G-G132N [2]; pH 6.4) was 0.357 ± 0.005 µM⁻¹ s⁻¹.
For CC1(C)S[C@@H]2[C@H](NC(=O)[C@H](N)c3ccccc3)C(=O)N2[C@H]1C(=O)O [Ampicillin, ampicillin], the KMapp (BlaC I105Y) was 89 ± 7 µM, the k cat (BlaC I105Y) was 48 ± 1 and 48 ± 1 s^−1 and the “k cat /K M ^app relative to the wild-type” value (BlaC I105Y) was 4.43 ± 0.1. The “k cat/K M ^app” value (BlaC I105Y) was 0.98 ± 0.02 and 0.98 ± 0.02 μM^−1 s^−1, the kcat (BlaC I105Y) was 28 ± 1 s⁻¹ and the kcat/KMapp (BlaC I105Y) was 320000 ± 30000 M⁻¹ s⁻¹. The “kcat/KMapp relative to the wild-type” value (BlaC I105Y) was 1.52 ± 0.14, the “fold decrease in k cat/K M ^app compared to the wild-type” value (BlaC S130G) was “approximately 30 fold” and the “fold higher activity in MES than in phosphate buffer” value (BlaC S130G) was “roughly 5 fold”. For the same molecule, the “k cat fold lower than for wild-type BlaC” value (BlaC S130G) was 8 fold, the “k cat times higher than for wild-type BlaC” value (BlaC S130G) was 2.5 times and the KMapp (BlaC S130G; pH 6.4) was 588 µM. For the same molecule, the k cat (BlaC S130G; pH 6.4) was 1.7 ± 1 and 1.7 ± 1 s^−1, the “k cat /K M ^app relative to the wild-type” value (BlaC S130G; pH 6.4) was 0.03 ± 0.01 and the “k cat/K M ^app” value (BlaC S130G; pH 6.4) was 0.007 ± 0.001 and 0.007 ± 0.001 μM^−1 s^−1. For the same molecule, the kcat (BlaC S130G; pH 6.4) was 21 ± 1 s⁻¹, the kcat/KMapp (BlaC S130G; pH 6.4) was 35000 ± 1000 M⁻¹ s⁻¹ and the “kcat/KMapp relative to the wild-type” value (BlaC S130G; pH 6.4) was 0.165 ± 0.005. For the same molecule, the KMapp (BlaC I105Y-S130G [1]) was 813 ± 132 µM, the k cat (BlaC I105Y-S130G [1]) was 17 ± 1 and 17 ± 1 s^−1 and the “k cat /K M ^app relative to the wild-type” value (BlaC I105Y-S130G [1]) was 0.270 ± 0.005. For the same molecule, the “k cat/K M ^app” value (BlaC I105Y-S130G [1]) was 0.057 ± 0.001 and 0.057 ± 0.001 μM^−1 s^−1, the kcat (BlaC I105Y-S130G [1]) was 23 ± 3 s⁻¹ and the kcat/KMapp (BlaC I105Y-S130G [1]) was 29000 ± 6000 M⁻¹ s⁻¹. The “kcat/KMapp relative to the wild-type” value (BlaC I105Y-S130G [1]) was 0.14 ± 0.03, the KMapp (BlaC I105G) was 31 ± 6 µM and the k cat (BlaC I105G) was 3.95 ± 0.04 and 3.95 ± 0.04 s^−1. The “k cat /K M ^app relative to the wild-type” value (BlaC I105G) was 1.00 ± 0.05, the “k cat/K M ^app” value (BlaC I105G) was 0.21 ± 0.01 and 0.21 ± 0.01 μM^−1 s^−1 and the kcat (BlaC I105G) was 6.0 ± 0.4 s⁻¹. For the same molecule, the kcat/KMapp (BlaC I105G) was 210000 ± 40000 M⁻¹ s⁻¹, the “kcat/KMapp relative to the wild-type” value (BlaC I105G) was 1.00 ± 0.19 and the KMapp (BlaC G132N; pH 6.4) was 282 ± 9 µM. The k cat (BlaC G132N; pH 6.4) was 33 ± 12 and 33 ± 12 s^−1, the “k cat /K M ^app relative to the wild-type” value (BlaC G132N; pH 6.4) was 0.10 ± 0.05 and the “k cat/K M ^app” value (BlaC G132N; pH 6.4) was 0.02 ± 0.01 and 0.02 ± 0.01 μM^−1 s^−1. For the same molecule, the kcat (BlaC G132N; pH 6.4) was 61 ± 1 s⁻¹, the kcat/KMapp (BlaC G132N; pH 6.4) was 220000 ± 10000 M⁻¹ s⁻¹ and the “kcat/KMapp relative to the wild-type” value (BlaC G132N; pH 6.4) was 1.04 ± 0.05. For the same molecule, the “factor by which the magnitude of positive epistasis diminished in MES buffer” value (BlaC I105G-G132N [2]) was 7.4, the KMapp (BlaC I105G-G132N [2]; pH 6.4) was 183 ± 21 µM and the k cat (BlaC I105G-G132N [2]; pH 6.4) was 18 ± 1 and 18 ± 1 s^−1. The “k cat /K M ^app relative to the wild-type” value (BlaC I105G-G132N [2]; pH 6.4) was 0.95 ± 0.05, the “k cat/K M ^app” value (BlaC I105G-G132N [2]; pH 6.4) was 0.20 ± 0.01 and 0.20 ± 0.01 μM^−1 s^−1 and the kcat (BlaC I105G-G132N [2]; pH 6.4) was 54 ± 2 s⁻¹. The kcat/KMapp (BlaC I105G-G132N [2]; pH 6.4) was 300000 ± 40000 M⁻¹ s⁻¹ and the “kcat/KMapp relative to the wild-type” value (BlaC I105G-G132N [2]; pH 6.4) was 1.42 ± 0.05.
With CC1(C)S[C@@H]2[C@H](NC(=O)C(C(=O)O)c3ccccc3)C(=O)N2[C@H]1C(=O)O (stereo partly shown) [Carbenicillin, carbenicillin] the “K M ^app” value (BlaC I105Y) was 1.5 ± 1 µM, the k cat (BlaC I105Y) was 2.0 ± 0.1 s⁻¹ and the “k cat /K M ^app relative to the wild-type” value (BlaC I105Y) was 14.9 ± 0.8. For the same molecule, the “k cat/K M ^app” value (BlaC I105Y) was 1.34 ± 0.07 µM⁻¹ s⁻¹, the “K M ^app” value (BlaC S130G; pH 6.4) was 72 ± 5 µM and the k cat (BlaC S130G; pH 6.4) was 1.2 ± 0.1 s⁻¹. For the same molecule, the “k cat /K M ^app relative to the wild-type” value (BlaC S130G; pH 6.4) was 0.22 ± 0.01, the “k cat/K M ^app” value (BlaC S130G; pH 6.4) was 0.020 ± 0.001 µM⁻¹ s⁻¹ and the “K M ^app” value (BlaC I105Y-S130G [1]) was 21 ± 3 µM. The k cat (BlaC I105Y-S130G [1]) was 2.7 ± 0.2 s⁻¹, the “k cat /K M ^app relative to the wild-type” value (BlaC I105Y-S130G [1]) was 1.4 ± 0.2 and the “k cat/K M ^app” value (BlaC I105Y-S130G [1]) was 0.13 ± 0.02 µM⁻¹ s⁻¹. For the same molecule, the “K M ^app” value (BlaC I105G) was 1.5 ± 0.4 µM, the k cat (BlaC I105G) was 0.12 ± 0.01 s⁻¹ and the “k cat /K M ^app relative to the wild-type” value (BlaC I105G) was 0.90 ± 0.04. The “k cat/K M ^app” value (BlaC I105G) was 0.081 ± 0.004 µM⁻¹ s⁻¹, the “times decrease in catalytic efficiency (k cat/K M ^app) versus the wild-type” value (BlaC G132N) was 13 times and the “K M ^app” value (BlaC G132N; pH 6.4) was 224 ± 11 µM. The k cat (BlaC G132N; pH 6.4) was 1.62 ± 0.02 s⁻¹, the “k cat /K M ^app relative to the wild-type” value (BlaC G132N; pH 6.4) was 0.080 ± 0.004 and the “k cat/K M ^app” value (BlaC G132N; pH 6.4) was 0.0072 ± 0.0004 µM⁻¹ s⁻¹. For the same molecule, the “K M ^app” value (BlaC I105G-G132N [2]; pH 6.4) was 7.0 ± 0.9 µM, the k cat (BlaC I105G-G132N [2]; pH 6.4) was 0.96 ± 0.07 s⁻¹ and the “k cat /K M ^app relative to the wild-type” value (BlaC I105G-G132N [2]; pH 6.4) was 1.6 ± 0.2. For the same molecule, the “k cat/K M ^app” value (BlaC I105G-G132N [2]; pH 6.4) was 0.14 ± 0.02 µM⁻¹ s⁻¹.
With O=C(O)[C@H]1/C(=C/CO)O[C@@H]2CC(=O)N21 [Clavulanic acid, clavulanic acid] the “incubation time after which the enzyme is fully inhibited” value (BlaC I105Y-S130G [3]) was 2 h, the “state of the enzyme after 24 h of incubation” value (BlaC I105Y-S130G [3]) was “stays fully inhibited” and the activity (BlaC I105Y-S130G [3]; read-out: recovery of activity, of the control activity) was 63%. For the same molecule, the “course of residual activity during incubation” value (BlaC I105G-G132N [4]) was “initially a slight drop in activity, followed by a swift recovery”.
